# Laboratory results reported in paper PMC6222706, “Evaluation of the Antioxidant and Neuroprotectant Activities of New Asymmetrical 1,3-Diketones” (Molecules : A Journal of Synthetic Chemistry and Natural …, 2018).
# What was measured:
# [1] = ABTS radical scavenging assay; assay type: biochemical; conditions: for IC50: 30 min incubation, EtOH, absorbance at 734 nm; for ABTS-TEAC100: Trolox Equivalent Antioxidant Capacity vs 100 µM solution of the substance, from ABTS assay
# Description: ABTS^+ radical was produced by reacting 2,2′-azino-bis-3-ethylbenzthiazoline-6-sulphonic acid (ABTS) 7 mM with K2S2O8 2.45 mM, both reactants dissolved in water, and at the volume ratio of 1:1. The mixture was stored in the dark at room temperature for 16 h. The ABTS^+ solution was diluted to give an absorbance of 0.750 ± 0.025 at 734 nm in EtOH. All the compounds tested were dissolved in EtOH. 150 µL of each compound solution was added to the wells of the 96-well plate, followed by the addition of 50 µL of the ABTS^+ radical solution. Final compound concentrations tested were 0, 5, 10, 20, 50, 100, 150, 200 µM. The absorbance change at 734 nm was recorded after 30 min incubation in the dark, and the percentage of radical scavenging was calculated for each concentration relative to a blank containing no scavenger. The degree of decolorization was calculated as the percentage reduction of absorbance. The ABTS^+ radical scavenging activity was calculated as follows: Percentage ABTS^+ radical scavenging activity = {1 − [As/Ac]} × 100(1) where As is the absorbance of the ABTS^+ radical solution containing samples and Ac the absorbance of the control solution without antioxidant. The percentages of ABTS^+ radical reduced were plotted against compound concentration. Trolox was used as a reference antioxidant. All the assays were carried out three times by quadruplicate for each compound.
# [2] = FRAP (Ferric Reducing Antioxidant Power) assay; assay type: biochemical; conditions: for FRAP-TEAC100: Trolox Equivalent Antioxidant Capacity vs 100 µM solution of the substance, from FRAP assay; for FRAP Assay (%) at 100 µM / FRAP Assay (%) at 200 µM: 30 min, 593 nm
# Description: The assay was carried out according to the method of Benzie et al. with slight modifications, in a 96-well microplate. FRAP reagent was prepared by mixing 10 mL of 300 mM acetate buffer with 1 mL of 10 mM 2,4,6-tripyridyl-S-triazine (TPTZ) in HCl 40 mM and 1mL of FeCl3·6H2O 20 mM. Firstly, 190 µL of the FRAP reagent were added to all wells of the 96-well plate, followed by the addition to the well of 10 µL of the test compounds dissolved in Ethanol to reach the final concentrations assayed (0, 5, 10, 20, 50, 100, 150, 200 µM). After 30 min incubation in the dark, the absorbance was read at 593 nm. Trolox was used as assay control. Three different assays were carried out by quadruplicate for each compound.
# [3] = Kinetic solubility by UV spectrometry in 10 mM PBS; assay type: physicochemical; conditions: 10 mM phosphate buffered saline, aqueous buffer, kinetic from dmso stock
# Description: Among the most important physicochemical parameters in drug-discovery, solubility and chemical stability in aqueous media are the determinants for non-toxic and brain-permeable drug-like compounds with good bioavailability. So, compounds with good aqueous solubility are the best candidates for drug-discovery progression. […] The assays were performed at room temperature, in 10 mM Phosphate Buffered Saline (PBS) from compound stocks in DMSO at 20 mM concentration.
# A modified protocol was used from that described by Hoelke et al. for the determination of the kinetic solubility from DMSO compound solutions. A compound calibration curve (compound concentration vs. UV absorption) was prepared on a 48 well plate for each compound with concentrations in the range of 10 µM to […]. Each compound dilution was carried out by pipetting defined volumes of a 20 mM stock compound solution in DMSO into the wells and adding PBS 10 mM to reach a final volume of 500 µL/well. The final amount of DMSO per well was 2%. For the lower compound concentrations, an additional volume of DMSO was added into each well to reach the 2% of DMSO. Then, 200 µL of each dilution was transferred to a new 96 well plate for the measurement of the UV-spectra. One well in each row was left without compound as a blank and its UV absorbance was used as an offset correction. The experiments were carried out by duplicate.
# (§1) In parallel compound saturation solutions were obtained and filtered from 20 mM compound stock in DMSO. So, 10 µL of 20 mM stock solution were dispensed to 190 µL of PBS 10 mM. The solutions were mixed, shaken in a microplate shaker for two hours, and then 160 µL of each solution were filtered and transferred to a new well plate for UV absorption measure. The compound stability in PBS 10 mM was determined at 24, 48 and 72 h with solutions prepared as those for the compound calibration curve.
# Measurement of the UV-spectra was performed using a Varioskan microplate reader and spectra were taken in the range of 270–600 nm. Spectral bandwidth was set to 5 nm and the data pint interval was 10 nm. […]
# [4] = Chemical stability in 10 mM PBS; assay type: physicochemical; conditions: 6b, 7b at 400 µM, curcumin at 50 µM
# Description: It is also important to know compound integrity at those concentrations used in biological assays, and for that, the chemical stability was determined in 10 mM PBS after 6 h, 24 h and 48 h.
# as §1
# SH-SY5Y cells = test: SH-SY5Y neuroprotection assay against H2O2 (MTT); assay type: cell-based, human; conditions: compound 5-50 µM for 24 h, then 200 µM H2O2 for 24 h
# Description: For neuroprotection experiments, SH-SY5Y cells were treated with test compound at different concentrations (5, 10, 20, 30, 40, and 50 µM) for 24 h. After the incubation period, cells were exposed to H2O2 200 µM for 24 h. At the end of the treatment, cell viability was measure with MTT.
# Compound neuroprotection under H2O2-induced oxidative stress was assessed by MTT assay. Briefly, SH-SY5Y were seeded into 96-well plates at a density of 3 × 10^3 cells/well and grown in the incubator for 24 h. Cells were pretreated for 24 h with different compound concentrations (5, 10, 20, 30, 40, 50 µM). After the treatment period, cells were exposed to 200 µM H2O2 for 24 h. Cell viability was measured with MTT following the same procedure described above. Cell viability was expressed as the percentage of the control value (cells without treatment with H2O2).
Compound,IC50 [1],ABTS-TEAC100 [1],FRAP-TEAC100 [2],FRAP Assay (%) at 100 µM [2],FRAP Assay (%) at 200 µM [2],solubility at 2 h [3],Remaining Compound (%) 0 h [4],Remaining Compound (%) 6 h [4],Remaining Compound (%) 24 h [4],Remaining Compound (%) 48 h [4],Cell viability after H2O2 (neuroprotection) (SH-SY5Y cells)
"O=C(/C=C(O)/C=C/c1ccc(O)c(F)c1F)C(F)(F)F [Compound 7b, (3Z,5E)-6-(2,3-Difluoro-4-hydroxyphenyl)-1,1,1-trifluoro-4-hydroxyhexa-3,5-dien-2-one]",70.9 ± 5.8 µM,0.62,0.16,8.8%,15.3%,298 ± 7 µg/mL,100%,95.7 ± 1.0%,90.9 ± 1.2%,87.8 ± 2.3%,significantly improved
"O=C(/C=C(O)/C=C/c1cc(F)c(O)cc1F)C(F)(F)F [Compound 6b, (3Z,5E)-6-(2,5-difluoro-4-hydroxyphenyl)-1,1,1-trifluoro-4-hydroxyhexa-3,5-dien-2-one]",116 ± 11 µM,0.67,0.15,6.7%,11.3%,281 ± 9 µg/mL,100%,96.1 ± 0.5%,92.2 ± 1.6%,90.4 ± 3.0%,significantly improved
